Assay results from patent US6861217B1, “Variation in drug response related to polymorphisms in the β2-adrenergic receptor” (Genaissance Pharmaceuticals, Inc., priority 1998, dated 2005).

System: patients with asthma
Assay: bronchodilating response (FEF25-75) to albuterol in patients with asthma by 5′LC genotype
Format: in vivo, human
Conditions: for patients exhibiting a bronchodilating response (increase in FEF25-75 greater than 12%): 180 micrograms aerosolized, 30 minutes
Source text: For this study, 134 patients with asthma were enrolled to determine whether either of the polymorphisms at nucleic acid −47 in the β2AR gene alter the bronchodilating response to β-agonist. The percent (%) change in the forced expiratory flow between 25% and 75% of the forced vital capacity (FEF25-75) was used as a measure of responsiveness. Patients underwent pulmonary function testing to measure FEF25-75 and then received 2 puffs (total of 180 micrograms) of aerosolized albuterol by metered dose inhaler. Thirty minutes later the FEF25-75 measurement was repeated. Based on accepted national standards, an increase in FEF25-75 of greater than 12% was considered a response, while 12% or less was considered no response.

`CC(C)(C)NCC(O)c1ccc(O)c(CO)c1` (stereo not drawn) [albuterol] was tested, and the “patients exhibiting a bronchodilating response (increase in FEF25-75 greater than 12%)” value (TT genotype at the 5′LC PS) was 28.8%, the “odds ratio for having no response” value (TT genotype versus TC or CC) was 2.47 and the “patients exhibiting a bronchodilating response (increase in FEF25-75 greater than 12%)” value (without TT genotype (TC or CC)) was 71.1%.
